Reference: patent US20040106148A1, “Polypeptides” (priority 2000, published 2004)

Target: mouse centaurin-β2 PH domain (residues 266 to 390), GST fusion (Mus musculus, UniProt Q6ZQK5)
Experiment: Protein-lipid overlay
Type: binding
Details: FIG. 2
Method: FIG. 2. Phosphoinositide binding properties of the novel PH domains. The ability of the indicated GST fusion proteins to bind a variety of phosphoinositides was analysed using a protein-lipid overlay. Serial dilutions of the indicated phosphoinositides (100 pmol, 50 pmol, 25 pmol, 12.5 pmol, 6.3 pmol, 3.1 pmol and 1.6 pmol) were spotted onto a nitrocellulose membranes which were then incubated with the purified GST fusion proteins. The membranes were washed and the GST-fusion proteins bound to the membrane by virtue of their interaction with lipid were detected using a GST antibody. A representative of at least 3 separate experiments carried out is shown.
Cloning of PH domains and preparation of expression constructs. All the human and mouse EST's were obtained from the I.M.A.G.E. Consortium and sequenced. The plant EST (accession number T04439) encoding a full length clone of AtPH1 was obtained from the Arabidopsis Biological Research. Centre (Ohio University). The sequence of each EST was verified and the full length PH domain of each EST was amplified by PCR using the Hi-fidelity PCR system with primers designed to incorporate a Kozak site, an initiating ATG codon followed by a myc epitope tag and a stop codon after the PH domain. […]

mouse centaurin-β2 PH domain (residues 266 to 390), GST fusion, sequence (Q6ZQK5 266-390): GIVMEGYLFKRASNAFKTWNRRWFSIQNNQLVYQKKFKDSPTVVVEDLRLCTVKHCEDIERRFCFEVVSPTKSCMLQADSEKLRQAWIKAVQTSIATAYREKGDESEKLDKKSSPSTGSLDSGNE

CCCCCCCCCCCCCCCC(=O)OC[C@H](COP(=O)(O)O[C@@H]1[C@H](O)[C@H](OP(=O)(O)O)[C@@H](O)[C@H](OP(=O)(O)O)[C@H]1O)OC(=O)CCCCCCCCCCCCCCC [PtdIns(3,5)P2]
phosphoinositide binding: moderate affinity
